Laboratory results as given in US5807845A, “Therapeutic drug for acne vulgaris” (Senju Pharmaceutical Co., Ltd., priority 1996, dated 1998).
Where two headings read alike, the source gives them in different places.

Tests used:
[1] = system: Propionibacterium acnes (P. acnes); assay: Minimal growth inhibitory concentration (MIC) against Propionibacterium acnes; assay type: cell-based, Propionibacterium acnes (clinically isolated strain); details: for MIC: Cutibacterium acnes; for Growth of P. acnes: key: +: growth; -: growth inhibition
Protocol: The minimal growth inhibitory concentration (MIC) of the present compound against P. acnes, which is a factor in the onset of acne vulgaris and a member of the normal flora of the skin, was determined.
(1) EPC-K (dissolved in distilled water)
Doubling dilutions from 10 mg/ml to 1.953125×10^-2 mg/ml in final concentration
(2) dl-α-tocopherol and L-ascorbic acid (dissolved in a mixed solution which consists of HC-60 (trademark, manufactured by NOF corporation) and propyleneglycol)
Dubling dilutions from 5 mg/ml to 7.8125×10^-2 mg/ml in final concentration
(3) As control, the mixed solution mentioned above was tested.
This test was performed by the method published by Committee for the Study of Methods for MIC Determination in Anaerobic Bacteria.
A frozen clinically isolated strain of P. acnes was subcultured on GAM agar medium for 3 generations and suspended in saline at about 10^8 cells/ml. This cell suspension and a 100-fold dilution thereof were used as inocula.
To molten GAM agar medium was added 1/9 volume of the test solution of a varying concentration and, after thorough mixing, sensitivity assay plates ranging from 10 mg/ml to 1.953125×10^-2 mg/ml in final concentration were prepared (plate pH 6.64-7.10). Using a loopful of the inoculum, each plate was streaked and incubated anaerobically at 37° C. for at least 48 hours. The incubated plate was then observed grossly and the lowest concentration causing a definite inhibition of growth was regarded as the MIC.
The inoculum was serially diluted 10-fold down to […] and GAM medium was inoculated with each dilution. After culture, the number of colonies were similarly countered for confirmation of the cell count.

[2] = system: auricular sebaceous glands; assay: Inhibitory effect on the increase in hamster auricular sebaceous gland area (testosterone propionate-induced); assay type: in vivo, Syrian hamster; details: 0.2%, 20 μl to right auricle twice daily for 2 weeks
Protocol: It is known that, in acne vulgaris, the sebaceous gland function of the skin is enhanced by elevation of the androgen level. Therefore, the auricular sebaceous glands were expanded by subcutaneous administration of an androgen to hamsters and the inhibitory effect of the present compound on this enlargement was tested.
Female Syrian hamsters purchased from SLC Japan were used at the age of 7 weeks.
(2) 0.2% L-ascorbyl DL-α-tocopheryl phosphate potassium (abbreviation: EPC-K)
In 1 ml of sesame oil was dissolved 80 μg of testosterone propionate and the solution was administered subcutaneously to hamsters every other day for 2 weeks to enlarge auricular sebaceous glands. The test material was applied in a volume of 20 μl to the right auricle twice daily for 2 weeks from the beginning of the test. The normal group was subjected to neither treatment. After 2 weeks, the hamsters were sacrificed. The right auricle was bored with a 9 mm-diameter punch and the sebaceous gland area was measured by the whole mount technique. The data were statistically analyzed by Dunnett's test. The level of significance was p<0.05.

[3] = Toxicity, LD50 in rat; details: in vivo, intravenous
[4] = 0.15625 mg/ml, 10^6 CFU/ml (Table 3)
[5] = 0.15625 mg/ml, 10^8 CFU/ml (Table 3)
[6] = 0.3125 mg/ml, 10^6 CFU/ml (Table 3)
[7] = 0.3125 mg/ml, 10^8 CFU/ml (Table 3)
[8] = 0.625 mg/ml, 10^6 CFU/ml (Table 3)
[9] = 0.625 mg/ml, 10^8 CFU/ml (Table 3)
[10] = 1.25 mg/ml, 10^6 CFU/ml (Table 3)
[11] = 1.25 mg/ml, 10^8 CFU/ml (Table 3)
[12] = 2.5 mg/ml, 10^6 CFU/ml (Table 3)
[13] = 2.5 mg/ml, 10^8 CFU/ml (Table 3)
[14] = 5.0 mg/ml, 10^6 CFU/ml (Table 3)
[15] = 5.0 mg/ml, 10^8 CFU/ml (Table 3)
[16] = 7.8125 × 10^-2 mg/ml, 10^6 CFU/ml (Table 3)
[17] = 7.8125 × 10^-2 mg/ml, 10^8 CFU/ml (Table 3)
[18] = vitamins in HC-60/propyleneglycol mixed solution, cell counts 10^8 and 10^6 CFU/ml (Table 3), read-out: MIC

O=C1O[C@H]([C@@H](O)CO)C(O)=C1O [L-Ascorbic acid, L-ascorbic acid]
+: Growth of P. acnes [1, 4] | Growth of P. acnes [1, 5] | Growth of P. acnes [1, 6] | Growth of P. acnes [1, 7] | Growth of P. acnes [1, 8] | Growth of P. acnes [1, 9] | Growth of P. acnes [1, 10] | Growth of P. acnes [1, 11] | Growth of P. acnes [1, 12] | Growth of P. acnes [1, 13] | Growth of P. acnes [1, 14] | Growth of P. acnes [1, 15] | Growth of P. acnes [1, 16] | Growth of P. acnes [1, 17]
≥ 5000 µg/mL: MIC [1, 18]

Cc1c(C)c2c(c(C)c1OP(=O)(O)OC1=C(O)[C@@H]([C@@H](O)CO)OC1=O)CCC(C)(CCCC(C)CCCC(C)CCCC(C)C)O2 (mixture of isomers) [EPC-K, L-ascorbyl DL-α-tocopheryl phosphate potassium]
312 µg/mL: MIC ([1]; cell count 10^6 /ml, EPC-K dissolved in distilled water)
≥ 100 mg/kg: LD50 [3]
-: Growth of P. acnes ([1]; 0.3125 mg/ml, 10^6 CFU/ml (Table 2)) | Growth of P. acnes ([1]; 0.625 mg/ml, 10^6 CFU/ml (Table 2)) | Growth of P. acnes ([1]; 0.625 mg/ml, 10^8 CFU/ml (Table 2)) | Growth of P. acnes ([1]; 1.25 mg/ml, 10^6 CFU/ml (Table 2)) | Growth of P. acnes ([1]; 1.25 mg/ml, 10^8 CFU/ml (Table 2)) | Growth of P. acnes ([1]; 2.5 mg/ml, 10^6 CFU/ml (Table 2)) | Growth of P. acnes ([1]; 2.5 mg/ml, 10^8 CFU/ml (Table 2)) | Growth of P. acnes ([1]; 5.0 mg/ml, 10^6 CFU/ml (Table 2)) | Growth of P. acnes ([1]; 5.0 mg/ml, 10^8 CFU/ml (Table 2)) | Growth of P. acnes ([1]; 10.0 mg/ml, 10^6 CFU/ml (Table 2)) | Growth of P. acnes ([1]; 10.0 mg/ml, 10^8 CFU/ml (Table 2))
+: Growth of P. acnes ([1]; 0.15625 mg/ml, 10^6 CFU/ml (Table 2)) | Growth of P. acnes ([1]; 0.15625 mg/ml, 10^8 CFU/ml (Table 2)) | Growth of P. acnes ([1]; 0.3125 mg/ml, 10^8 CFU/ml (Table 2)) | Growth of P. acnes ([1]; 1.953125 × 10^-2 mg/ml, 10^6 CFU/ml (Table 2)) | Growth of P. acnes ([1]; 1.953125 × 10^-2 mg/ml, 10^8 CFU/ml (Table 2)) | Growth of P. acnes ([1]; 3.90625 × 10^-2 mg/ml, 10^6 CFU/ml (Table 2)) | Growth of P. acnes ([1]; 3.90625 × 10^-2 mg/ml, 10^8 CFU/ml (Table 2)) | Growth of P. acnes ([1]; 7.8125 × 10^-2 mg/ml, 10^6 CFU/ml (Table 2)) | Growth of P. acnes ([1]; 7.8125 × 10^-2 mg/ml, 10^8 CFU/ml (Table 2))
3327 ± 225 μm^2: Area (auricular sebaceous gland area) ([2]; mean ± standard deviation (n = 7-8), p < 0.01 vs. methanol control)
625 µg/mL: MIC ([1]; cell count 10^8 /ml, EPC-K dissolved in distilled water)
72.5%: % Inhibition of the increase in auricular sebaceous gland area ([2]; vs. methanol control)

Cc1c(C)c2c(c(C)c1O)CCC(C)(CCCC(C)CCCC(C)CCCC(C)C)O2 (racemic) [dl-α-Tocopherol, dl-α-tocopherol]
+: Growth of P. acnes [1, 4] | Growth of P. acnes [1, 5] | Growth of P. acnes [1, 6] | Growth of P. acnes [1, 7] | Growth of P. acnes [1, 8] | Growth of P. acnes [1, 9] | Growth of P. acnes [1, 10] | Growth of P. acnes [1, 11] | Growth of P. acnes [1, 12] | Growth of P. acnes [1, 13] | Growth of P. acnes [1, 14] | Growth of P. acnes [1, 15] | Growth of P. acnes [1, 16] | Growth of P. acnes [1, 17]
≥ 5000 µg/mL: MIC [1, 18]
